One data set can be described thus: in vivo. The note with it: cynomolgus monkey, sc.
Another data set has as its target glucagon receptor (Homo sapiens, UniProt P47871). Briefly: Human glucagon receptor activation assay (CRE-luciferase). The note with it: CHO-K1 cells transiently transfected; for Emax: 6 h, relative to glucagon, read-out: GCG receptor Maximum activation (% vs GCG); for EC50: 6 hours, 0.1% BSA, read-out: GCG receptor EC50. Details: host or cells: CHO-K1. It is filed as cell-based. As to the method:
(§1) Then, the resulting increased luciferase activity was evaluated as a measurement of the effect on each receptor activation.
(§2) For positive control, endogenous ligand GLP-1 or glucagon was used for respective evaluation. The above-mentioned acylated oxyntomodulin peptide analogs of Comparative Example 8-12 were synthesized and used as comparative examples.
(§3) After 3 hours of transfection, medium was exchanged to Alpha Minimal Essential Medium (α-MEM) comprising 10% fetal bovine serum (FBS). Next day, the medium was exchanged to α-MEM comprising the acylated oxyntomodulin peptide analog of the present invention and 0.1% bovine serum albumin (BSA). After 6 hours, dual luciferase assay reagent (Promega) was added in the same amount as the medium in which the cells were submerged, and firefly luciferase and Renilla luciferase activities were successively measured. Firefly luciferase activity values were corrected against Renilla luciferase activity to yield transfection efficiency.

For a further data set, the target named is GLP-1 receptor (Homo sapiens, UniProt P43220). Briefly: Human GLP-1 receptor activation assay (CRE-luciferase). It is filed as cell-based. Also noted: host or cells: CHO-K1. The note with it: for Emax: CHO-K1, 6 h, read-out: GLP-1 receptor Maximum activation (% vs GLP-1); for EC50: CHO-K1 cells transiently transfected, luciferase, 6 hours, 0.1% BSA. As for the experimental part: as §1, §2, §3
Sequence of GLP-1 receptor (P43220 24-463): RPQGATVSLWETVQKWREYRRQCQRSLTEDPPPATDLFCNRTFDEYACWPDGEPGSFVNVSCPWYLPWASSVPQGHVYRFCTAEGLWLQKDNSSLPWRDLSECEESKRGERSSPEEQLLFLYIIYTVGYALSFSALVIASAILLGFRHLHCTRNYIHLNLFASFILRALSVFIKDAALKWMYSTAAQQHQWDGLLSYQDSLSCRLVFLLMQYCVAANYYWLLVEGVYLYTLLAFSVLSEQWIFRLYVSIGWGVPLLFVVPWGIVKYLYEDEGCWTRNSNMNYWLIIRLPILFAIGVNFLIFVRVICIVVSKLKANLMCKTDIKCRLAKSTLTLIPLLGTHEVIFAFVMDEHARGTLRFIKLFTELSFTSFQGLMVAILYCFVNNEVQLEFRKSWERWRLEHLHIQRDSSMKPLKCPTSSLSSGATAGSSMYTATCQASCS

Sequence of glucagon receptor (P47871 26-477): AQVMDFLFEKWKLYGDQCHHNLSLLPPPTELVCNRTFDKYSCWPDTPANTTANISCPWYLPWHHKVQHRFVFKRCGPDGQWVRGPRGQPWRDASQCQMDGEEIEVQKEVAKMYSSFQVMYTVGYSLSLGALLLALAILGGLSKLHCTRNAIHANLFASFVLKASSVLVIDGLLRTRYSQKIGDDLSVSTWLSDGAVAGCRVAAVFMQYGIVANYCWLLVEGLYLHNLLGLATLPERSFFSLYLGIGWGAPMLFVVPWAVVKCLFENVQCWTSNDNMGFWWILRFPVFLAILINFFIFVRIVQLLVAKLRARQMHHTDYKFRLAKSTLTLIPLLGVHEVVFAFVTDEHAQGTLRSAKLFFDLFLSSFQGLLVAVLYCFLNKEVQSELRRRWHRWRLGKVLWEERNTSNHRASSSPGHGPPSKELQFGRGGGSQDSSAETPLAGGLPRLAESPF
Text for in vivo: Cynomolgus monkeys were used to evaluate the pharmacokinetics in monkeys of the acylated oxyntomodulin peptide analogs according to the present invention.

On to `CCCCCCCCCCCCCCCCCC(=O)N[C@@H](CCC(=O)NCCOCCOCC(=O)NCCOCCOCC(=O)NCCCC[C@H](NC(=O)[C@H](CC(=O)O)NC(=O)[C@H](CO)NC(=O)[C@@H](NC(=O)[C@H](Cc1ccccc1)NC(=O)[C@@H](NC(=O)CNC(=O)[C@H](CCC(N)=O)NC(=O)C(C)(C)NC(=O)[C@@H](N)Cc1c[nH]cn1)[C@@H](C)O)[C@@H](C)O)C(=O)N[C@@H](CO)C(=O)N[C@@H](CCCCN)C(=O)N[C@@H](Cc1ccc(O)cc1)C(=O)N[C@@H](CC(C)C)C(=O)N[C@@H](CC(=O)O)C(=O)NC(C)(C)C(=O)N[C@@H](CCCNC(=N)N)C(=O)N[C@@H](CCCNC(=N)N)C(=O)N[C@@H](C)C(=O)N[C@@H](CCC(N)=O)C(=O)N[C@@H](CC(=O)O)C(=O)N[C@@H](Cc1ccccc1)C(=O)N[C@H](C(=O)N[C@@H](CCC(N)=O)C(=O)N[C@@H](Cc1c[nH]c2ccccc12)C(=O)N[C@@H](CC(C)C)C(=O)N[C@@H](CCSC)C(=O)N[C@@H](CC(N)=O)C(=O)N[C@H](C(=O)N[C@@H](CCCCN)C(=O)N[C@@H](CCC(=O)O)C(=O)N[C@@H](Cc1ccc(O)cc1)C(=O)N[C@@H](CCC(=O)O)C(=O)N[C@@H](CCCCNC(=O)COCCOCCNC(=O)COCCOCCNC(=O)COCCOCCNC(=O)CCCCCCCCCCCCCCC)C(=O)N[C@@H](CCC(=O)O)C(=O)N[C@@H](Cc1ccc(O)cc1)C(=O)N[C@@H](CCC(=O)O)C(=O)O)[C@@H](C)O)C(C)C)C(=O)O` [Compound 12], for which the half-life in the data set “in vivo” (Monkey PK (S.C. half-life)) was 6 to 12 h; in the data set “in vivo” (monkey PK half-life) it was less than 12 h. The Emax was 89.6% at glucagon receptor and 102% on GLP-1 receptor. The 50% effective concentration (EC50) on glucagon receptor and at GLP-1 receptor was less than 100 pM in each case.
On to `CCCCCCCCCCCCCCCCCC(=O)N[C@@H](CCC(=O)NCCOCCOCC(=O)NCCOCCOCC(=O)NCCCC[C@H](NC(=O)[C@H](CC(=O)O)NC(=O)[C@H](CO)NC(=O)[C@@H](NC(=O)[C@H](Cc1ccccc1)NC(=O)[C@@H](NC(=O)CNC(=O)[C@H](CCC(N)=O)NC(=O)C(C)(C)NC(=O)[C@@H](N)Cc1c[nH]cn1)[C@@H](C)O)[C@@H](C)O)C(=O)N[C@@H](CO)C(=O)N[C@@H](CCCCN)C(=O)N[C@@H](Cc1ccc(O)cc1)C(=O)N[C@@H](CC(C)C)C(=O)N[C@@H](CC(=O)O)C(=O)NC(C)(C)C(=O)N[C@@H](CCCNC(=N)N)C(=O)N[C@@H](CCCNC(=N)N)C(=O)N[C@@H](C)C(=O)N[C@@H](CCC(N)=O)C(=O)N[C@@H](CC(=O)O)C(=O)N[C@@H](Cc1ccccc1)C(=O)N[C@H](C(=O)N[C@@H](CCC(N)=O)C(=O)N[C@@H](Cc1c[nH]c2ccccc12)C(=O)N[C@@H](CC(C)C)C(=O)N[C@@H](CCSC)C(=O)N[C@@H](CC(N)=O)C(=O)N[C@H](C(=O)N[C@@H](CCCCN)C(=O)N[C@@H](CCC(=O)O)C(=O)N[C@@H](Cc1ccc(O)cc1)C(=O)N[C@@H](CCC(=O)O)C(=O)N[C@@H](CCCCNC(=O)COCCOCCNC(=O)COCCOCCNC(=O)COCCOCCNC(=O)CC[C@H](NC(=O)CCCCCCCCCCCCCCCCC(=O)O)C(=O)O)C(=O)N[C@@H](CCC(=O)O)C(=O)N[C@@H](Cc1ccc(O)cc1)C(=O)N[C@@H](CCC(=O)O)C(=O)O)[C@@H](C)O)C(C)C)C(=O)O` [Compound 5], for which the half-life in “in vivo” (Monkey PK (S.C. half-life)) fell in the range of 18 to 24 h; in “in vivo” (monkey PK half-life), 12 to 24 h. In addition, the Emax on glucagon receptor turned out to be 99.4%; on GLP-1 receptor it was 93.6%. In addition, the EC50 at glucagon receptor and on GLP-1 receptor was 100 to 1000 pM each time.
As for `CCCCCCCCCCCCCCCCCC(=O)N[C@@H](CCC(=O)NCCOCCOCC(=O)NCCOCCOCC(=O)NCCCC[C@H](NC(=O)[C@H](CC(=O)O)NC(=O)[C@H](CO)NC(=O)[C@@H](NC(=O)[C@H](Cc1ccccc1)NC(=O)[C@@H](NC(=O)CNC(=O)[C@H](CCC(N)=O)NC(=O)C(C)(C)NC(=O)[C@@H](N)Cc1c[nH]cn1)[C@@H](C)O)[C@@H](C)O)C(=O)N[C@@H](CO)C(=O)N[C@@H](CCCCN)C(=O)N[C@@H](Cc1ccc(O)cc1)C(=O)N[C@@H](CC(C)C)C(=O)N[C@@H](CC(=O)O)C(=O)NC(C)(C)C(=O)N[C@@H](CCCNC(=N)N)C(=O)N[C@@H](CCCNC(=N)N)C(=O)N[C@@H](C)C(=O)N[C@@H](CCC(N)=O)C(=O)N[C@@H](CC(=O)O)C(=O)N[C@@H](Cc1ccccc1)C(=O)N[C@H](C(=O)N[C@@H](CCC(N)=O)C(=O)N[C@@H](Cc1c[nH]c2ccccc12)C(=O)N[C@@H](CC(C)C)C(=O)N[C@@H](CCSC)C(=O)N[C@@H](CC(N)=O)C(=O)N[C@H](C(=O)N[C@@H](CCCCN)C(=O)N[C@@H](CCC(=O)O)C(=O)N[C@@H](Cc1ccc(O)cc1)C(=O)N[C@@H](CCC(=O)O)C(=O)N[C@@H](CCCCNC(=O)CCCCCCCCCCCCCCC)C(=O)N[C@@H](CCC(=O)O)C(=O)N[C@@H](Cc1ccc(O)cc1)C(=O)N[C@@H](CCC(=O)O)C(=O)O)[C@@H](C)O)C(C)C)C(=O)O` [Compound 9], the half-life in the data set “in vivo” (Monkey PK (S.C. half-life)) was 6 to 12 h; in “in vivo” (monkey PK half-life) it was less than 12 h. Besides, the figures for the Emax on glucagon receptor and on GLP-1 receptor were 73.3% and 70.4%, respectively. Besides, the EC50 on glucagon receptor and at GLP-1 receptor was 100 to 1000 pM each time.
`CCCCCCCCCCCCCCCCCC(=O)N[C@@H](CCC(=O)NCCOCCOCC(=O)NCCOCCOCC(=O)NCCCC[C@H](NC(=O)[C@H](CC(=O)O)NC(=O)[C@H](CO)NC(=O)[C@@H](NC(=O)[C@H](Cc1ccccc1)NC(=O)[C@@H](NC(=O)CNC(=O)[C@H](CCC(N)=O)NC(=O)C(C)(C)NC(=O)[C@@H](N)Cc1c[nH]cn1)[C@@H](C)O)[C@@H](C)O)C(=O)N[C@@H](CO)C(=O)N[C@@H](CCCCN)C(=O)N[C@@H](Cc1ccc(O)cc1)C(=O)N[C@@H](CC(C)C)C(=O)N[C@@H](CC(=O)O)C(=O)NC(C)(C)C(=O)N[C@@H](CCCNC(=N)N)C(=O)N[C@@H](CCCNC(=N)N)C(=O)N[C@@H](C)C(=O)N[C@@H](CCC(N)=O)C(=O)N[C@@H](CC(=O)O)C(=O)N[C@@H](Cc1ccccc1)C(=O)N[C@H](C(=O)N[C@@H](CCC(N)=O)C(=O)N[C@@H](Cc1c[nH]c2ccccc12)C(=O)N[C@@H](CC(C)C)C(=O)N[C@@H](CCSC)C(=O)N[C@@H](CC(N)=O)C(=O)N[C@H](C(=O)N[C@@H](CCCCN)C(=O)N[C@@H](CCC(=O)O)C(=O)N[C@@H](Cc1ccc(O)cc1)C(=O)N[C@@H](CCC(=O)O)C(=O)N[C@@H](CCCCNC(=O)[C@@H](N)CCCCNC(=O)CCCCCCCCCCCCCCCCC(=O)O)C(=O)N[C@@H](CCC(=O)O)C(=O)N[C@@H](Cc1ccc(O)cc1)C(=O)N[C@@H](CCC(=O)O)C(=O)O)[C@@H](C)O)C(C)C)C(=O)O` [Compound 4]: the half-life in “in vivo” (Monkey PK (S.C. half-life)) lay within 18 to 24 h; in “in vivo” (monkey PK half-life), 12 to 24 h. Moreover, the results for the Emax on glucagon receptor and on GLP-1 receptor were 95.4% and 87.9%, respectively. Also, the EC50 on glucagon receptor is no less than 1000 pM; at GLP-1 receptor, 100 to 1000 pM.
Turning to `CCCCCCCCCCCCCCCCCC(=O)N[C@@H](CCC(=O)NCCOCCOCC(=O)NCCOCCOCC(=O)NCCCC[C@H](NC(=O)[C@H](CC(=O)O)NC(=O)[C@H](CO)NC(=O)[C@@H](NC(=O)[C@H](Cc1ccccc1)NC(=O)[C@@H](NC(=O)CNC(=O)[C@H](CCC(N)=O)NC(=O)C(C)(C)NC(=O)[C@@H](N)Cc1c[nH]cn1)[C@@H](C)O)[C@@H](C)O)C(=O)N[C@@H](CO)C(=O)N[C@@H](CCCCN)C(=O)N[C@@H](Cc1ccc(O)cc1)C(=O)N[C@@H](CC(C)C)C(=O)N[C@@H](CC(=O)O)C(=O)NC(C)(C)C(=O)N[C@@H](CCCNC(=N)N)C(=O)N[C@@H](CCCNC(=N)N)C(=O)N[C@@H](C)C(=O)N[C@@H](CCC(N)=O)C(=O)N[C@@H](CC(=O)O)C(=O)N[C@@H](Cc1ccccc1)C(=O)N[C@H](C(=O)N[C@@H](CCC(N)=O)C(=O)N[C@@H](Cc1c[nH]c2ccccc12)C(=O)N[C@@H](CC(C)C)C(=O)N[C@@H](CCSC)C(=O)N[C@@H](CC(N)=O)C(=O)N[C@H](C(=O)N[C@@H](CCCCN)C(=O)N[C@@H](CCC(=O)O)C(=O)N[C@@H](Cc1ccc(O)cc1)C(=O)N[C@@H](CCC(=O)O)C(=O)N[C@@H](CCCCNC(=O)CCCCCCCCCCCCCCC(N)=O)C(=O)N[C@@H](CCC(=O)O)C(=O)N[C@@H](Cc1ccc(O)cc1)C(=O)N[C@@H](CCC(=O)O)C(=O)O)[C@@H](C)O)C(C)C)C(=O)O` [Compound 11], the half-life is 6 to 12 h in the data set “in vivo” (Monkey PK (S.C. half-life)) and less than 12 h in “in vivo” (monkey PK half-life). In addition, the Emax was found to be 98.5% at glucagon receptor and 92.8% at GLP-1 receptor. Moreover, the concentration giving a half-maximal response (EC50) at glucagon receptor and at GLP-1 receptor was less than 100 pM in each case.

Usually half-life stands for how long it takes for the measured level to halve. As a reminder, the EC50 is the concentration at which the effect is half-maximal.

The record behind these values is patent US20230220035A1 (DONG-A ST CO., LTD., published 2023).
